# Test results published in ChEMBL document CHEMBL3885861, “Open TG-GATES”.
# Organism: Rattus norvegicus
# Assay: Open TG-GATES - Regimen: Single
# Format: toxicity, organism-based, Sprague-Dawley
# Design: regimen Single, gender Male, age 6 weeks
# Conditions: in vivo, po, 0 mg/kg, route gavage, dose level Control; for APTT / Bas / Eos / Fbg / Hb / Ht / Lym / MCH / MCHC / MCV / Mono / Neu / PT / Plat / RBC / Ret / WBC: tissue Blood; for KIDNEY_L / KIDNEY_R / KIDNEY_TOTAL: tissue Kidney; for LIVER: tissue Liver; for A/G / ALP / ALT / AST / BUN / CRE / Ca / Cl / DBIL / GLC / IP / K / LDH / Na / PL / RALB / TBIL / TC / TG / TP / gamma-GTP: tissue Plasma
smiles,measurement,setting,value
C[C@H]1O[C@H](O[C@H]2[C@H](O)[C@@H](O)[C@@H](O[C@H]3[C@H](O)[C@@H](O)C(O)O[C@@H]3CO)O[C@@H]2CO)[C@H](O)[C@@H](O)[C@@H]1N[C@H]1C=C(CO)[C@@H](O)[C@H](O)[C@H]1O (some centres not stated) [ACARBOSE],TERMINAL_BW,3 h,196.9 g
same,APTT,3 h,16.9 s
same,Bas,3 h,0.2%
same,Eos,3 h,0.8%
same,Fbg,3 h,275 mg/dL
same,Hb,3 h,13.4 g/dL
same,Ht,3 h,41.3%
same,Lym,3 h,78.6%
same,MCH,3 h,20.8 pg
same,MCHC,3 h,32.6%
same,MCV,3 h,63.7 fL
same,Mono,3 h,2.6%
same,Neu,3 h,16.8%
same,PT,3 h,13.6 s
same,Plat,3 h,116.5 x10_4/uL
same,RBC,3 h,647.8 x10_4/ul
same,Ret,3 h,8.1%
same,WBC,3 h,97.1 x10_2/uL
same,KIDNEY_L,3 h,0.9 g
same,KIDNEY_R,3 h,0.9 g
same,KIDNEY_TOTAL,3 h,1.8 g
same,LIVER,3 h,8.8 g
same,A/G,3 h,0.9
same,ALP,3 h,1499.8 IU/L
same,ALT,3 h,36 IU/L
same,AST,3 h,72.6 IU/L
same,BUN,3 h,10.4 mg/dL
same,CRE,3 h,0.2 mg/dL
same,Ca,3 h,10.7 mg/dL
same,Cl,3 h,105.2 meq/L
same,DBIL,3 h,0.006 mg/dL
same,GLC,3 h,174.6 mg/dL
same,IP,3 h,9.5 mg/dL
same,K,3 h,4 meq/L
same,LDH,3 h,58.2 IU/L
same,Na,3 h,141.4 meq/L
same,PL,3 h,133 mg/dL
same,RALB,3 h,2.5 g/dL
same,TBIL,3 h,0.06 mg/dL
same,TC,3 h,73.6 mg/dL
same,TG,3 h,46.8 mg/dL
same,TP,3 h,5.2 g/dL
same,gamma-GTP,3 h,1 IU/L
same,TERMINAL_BW,6 h,197.1 g
same,APTT,6 h,17.2 s
same,Bas,6 h,0.2%
same,Eos,6 h,0.6%
same,Fbg,6 h,286 mg/dL
same,Hb,6 h,13.2 g/dL
same,Ht,6 h,40.8%
same,Lym,6 h,73.6%
same,MCH,6 h,21 pg
same,MCHC,6 h,32.3%
same,MCV,6 h,64.9 fL
same,Mono,6 h,2.6%
same,Neu,6 h,22.4%
same,PT,6 h,13.7 s
same,Plat,6 h,125.4 x10_4/uL
same,RBC,6 h,629.8 x10_4/ul
same,Ret,6 h,8.4%
same,WBC,6 h,74.2 x10_2/uL
same,KIDNEY_L,6 h,0.9 g
same,KIDNEY_R,6 h,0.9 g
same,KIDNEY_TOTAL,6 h,1.9 g
same,LIVER,6 h,8.2 g
same,A/G,6 h,0.9
same,ALP,6 h,1467.2 IU/L
same,ALT,6 h,35.2 IU/L
same,AST,6 h,72.2 IU/L
same,BUN,6 h,8.8 mg/dL
same,CRE,6 h,0.2 mg/dL
same,Ca,6 h,10.5 mg/dL
same,Cl,6 h,104.6 meq/L
same,DBIL,6 h,0.004 mg/dL
same,GLC,6 h,166 mg/dL
same,IP,6 h,10.4 mg/dL
same,K,6 h,3.7 meq/L
same,LDH,6 h,65 IU/L
same,Na,6 h,141.6 meq/L
same,PL,6 h,136.8 mg/dL
same,RALB,6 h,2.5 g/dL
same,TBIL,6 h,0.064 mg/dL
same,TC,6 h,73.4 mg/dL
same,TG,6 h,72.4 mg/dL
same,TP,6 h,5.2 g/dL
same,gamma-GTP,6 h,1.4 IU/L
same,TERMINAL_BW,9 h,198.4 g
same,APTT,9 h,18.3 s
same,Bas,9 h,0%
same,Eos,9 h,0.8%
same,Fbg,9 h,306.6 mg/dL
same,Hb,9 h,13.2 g/dL
same,Ht,9 h,40.7%
same,Lym,9 h,75.2%
same,MCH,9 h,20.9 pg
same,MCHC,9 h,32.3%
same,MCV,9 h,64.8 fL
same,Mono,9 h,1.8%
same,Neu,9 h,21%
same,PT,9 h,13.6 s
same,Plat,9 h,122.9 x10_4/uL
same,RBC,9 h,629.4 x10_4/ul
same,Ret,9 h,8.4%
same,WBC,9 h,90.2 x10_2/uL
same,KIDNEY_L,9 h,0.9 g
same,KIDNEY_R,9 h,0.9 g
same,KIDNEY_TOTAL,9 h,1.8 g
same,LIVER,9 h,8.1 g
same,A/G,9 h,0.9
same,ALP,9 h,1467.6 IU/L
same,ALT,9 h,35.2 IU/L
same,AST,9 h,69.4 IU/L
same,BUN,9 h,8.6 mg/dL
same,CRE,9 h,0.2 mg/dL
same,Ca,9 h,10.4 mg/dL
same,Cl,9 h,104.2 meq/L
same,DBIL,9 h,0.006 mg/dL
same,GLC,9 h,177.8 mg/dL
same,IP,9 h,10.2 mg/dL
same,K,9 h,3.9 meq/L
same,LDH,9 h,63.8 IU/L
same,Na,9 h,140.8 meq/L
same,PL,9 h,133.6 mg/dL
same,RALB,9 h,2.5 g/dL
same,TBIL,9 h,0.06 mg/dL
same,TC,9 h,73.6 mg/dL
same,TG,9 h,52.4 mg/dL
same,TP,9 h,5.2 g/dL
same,gamma-GTP,9 h,1.2 IU/L
same,TERMINAL_BW,24 h,211.4 g
same,APTT,24 h,19.4 s
same,Bas,24 h,0%
same,Eos,24 h,1%
same,Fbg,24 h,269.6 mg/dL
same,Hb,24 h,13.2 g/dL
same,Ht,24 h,40.1%
same,Lym,24 h,73.6%
same,MCH,24 h,20.7 pg
same,MCHC,24 h,32.8%
same,MCV,24 h,63 fL
same,Mono,24 h,3.2%
same,Neu,24 h,21.4%
same,PT,24 h,13.1 s
same,Plat,24 h,113.4 x10_4/uL
same,RBC,24 h,636.6 x10_4/ul
same,Ret,24 h,7.9%
same,WBC,24 h,81.7 x10_2/uL
same,KIDNEY_L,24 h,1 g
same,KIDNEY_R,24 h,0.9 g
same,KIDNEY_TOTAL,24 h,1.9 g
same,LIVER,24 h,9.8 g
same,A/G,24 h,0.9
same,ALP,24 h,1381.8 IU/L
same,ALT,24 h,42.2 IU/L
same,AST,24 h,71.6 IU/L
same,BUN,24 h,14.2 mg/dL
same,CRE,24 h,0.2 mg/dL
same,Ca,24 h,10.7 mg/dL
same,Cl,24 h,103.8 meq/L
same,DBIL,24 h,0.006 mg/dL
same,GLC,24 h,175.8 mg/dL
same,IP,24 h,8.3 mg/dL
same,K,24 h,3.9 meq/L
same,LDH,24 h,60.8 IU/L
same,Na,24 h,141.4 meq/L
same,PL,24 h,139.8 mg/dL
same,RALB,24 h,2.5 g/dL
same,TBIL,24 h,0.062 mg/dL
same,TC,24 h,78 mg/dL
same,TG,24 h,59.2 mg/dL
same,TP,24 h,5.3 g/dL
same,gamma-GTP,24 h,1 IU/L
